# In PMC6696315, “Inhibiting Acetylcholinesterase to Activate Pleiotropic Prodrugs with Therapeutic Interest in Alzheimer’s Disease” (Molecules, 2019):
# “Also recorded” adds a separate entry of the source.
# What was measured:
# [1] = biological target: T1, AChE (Homo sapiens, UniProt P22303); test: Kinetic study for AChE inhibition (Lineweaver-Burk plots); type: biochemical
# Procedure: To try to clarify the mechanism of action of 19 and 20, reciprocal plots of 1/velocity vs. 1/[substrate] were constructed at different concentrations of the substrate acetylthiocholine iodide (0.01–1 mM) by using the spectrometric method by Ellman et al.. Four concentrations of 19 were selected for the studies: 10^−6, 10^−7, 10^−8 and 10^−9 M for the kinetic analysis of AChE inhibition. Four concentrations of 20 were selected for the studies: 10^−5, 10^−6, 10^−7 and 10^−8 M for the kinetic analysis of AChE inhibition. The plots were assessed by a weighted least squares analysis that assumed the variance of velocity (ν) to be a constant percentage of ν for the entire dataset. Slopes of these reciprocal plots were then plotted against the concentration of 19 and 20 in a weighted analysis.
# [2] = Parallel artificial membrane permeability assay (PAMPA-BBB)
# Procedure: The ability of carbamate 20 to cross the BBB was assessed using a parallel artificial membrane permeability assay experiment. […] The parallel artificial membrane permeability assay (PAMPA) blood–brain barrier (BBB) experiments were conducted using the Pampa Explorer Kit (Pion Inc., Billerica, MA, USA) according to the protocol provided by the manufacturer. […] The PAMPA sandwich was assembled and allowed to incubate at room temperature for 4 h without stirring. The sandwich was then separated, and the UV-visible spectra were measured for both the donor and receiver wells with the microplate reader (Tecan Infinit M200).
# [3] = CNS-activity and acute toxicity test; details: male, NMRI, mouse, in vivo, ip
# Procedure: (§1) Animals. Adult male NMRI mice (3 months old, weighing 35–40 g) from Janvier labs (Le Genest-Saint-Isle, France) were used to perform experiments. Mice were housed by ten in standard polycarbonate cages in standard controlled conditions (22 ± 2 °C, 55 ± 10% humidity) with a reversed 12 h light/dark cycle (light on at 7 pm). Food and water were available ad libitum in the home cage. All experiments were conducted (between 9 am and 3 pm) during the active–dark phase of the cycle and were in agreement with the European Directives and French law on animal experimentation (personal authorization n° 14–17 for MB and 14–60 for TF).
# (§2) CNS-activity and acute toxicity test. Behavioral and neurological changes induced by graded doses (1, 10, 100 mg/kg) of the tested derivatives were evaluated in mice, in groups of four, by a standardized observation technique at different times (30 min, 3 and 24 h) after intraperitoneal administration. […] The approximate DL50 of the compounds were also calculated through the quantification of mortality after 24 h. Amphetamine (2 mg/kg) and chlorpromazine (10 mg/kg) were used as the stimulant and depressive references, respectively.
# [4] = test system: mice; test: CNS-activity and acute toxicity test; details: mice, IP
# Procedure: as §1, §2
# [5] = test system: mice; test: Spontaneous locomotor activity (actimeter); type: in vivo, NMRI mice; details: IP 30 min before test, 1, 3 and 10 mg/kg
# Procedure: Locomotor activity. The locomotion of mice was measured using an actimeter (Imetronic®, Pessac, France) through infrared detection. Eight individual removable polycarbonate cages (21 cm length, 7 cm wide and 12 cm high), in which each mouse was placed, were used in the actimeter. Locomotor activity was measured by recording the number of interruptions of beams of the red light over a period of 30 min through a recording system attached to the actimeter. Compound 20 was tested at 1, 3 and 10 mg/kg. Chlorpromazine (3 mg/kg) were used as depressive reference.
# [6] = test system: mice; test: Spontaneous alternation (Y maze), scopolamine-induced deficit; type: in vivo, NMRI mice; details: 1 mg/kg IP 30 min before test, scopolamine 0.5 mg/kg SC
# Procedure: as §1
# (§3) Spatial working memory. The antiamnesic activity of the tested compounds was evaluated by a reversal of deficit on spontaneous alternation behavior in the Y maze test. […] The Y maze made of grey plastic consisted of three equally-spaced arms (21-cm long, 7-cm wide with walls 15-cm high). The mouse was placed at the end of one of the arms and allowed to move freely through the maze during a 5 min session, while the sequence of arm entries was recorded by an observer. An arm entry was scored when all four feet crossed into the arm. An alternation was defined as entries into all three arms on a consecutive occasion.
# (§4) Pharmacological treatments.
# [7] = test system: mice; test: Spontaneous alternation (Y maze), MK801-induced deficit; type: in vivo, NMRI mice; details: 1 mg/kg IP 30 min before test, MK801 0.1 mg/kg SC
# Procedure: as §1, §3, §4
# [8] = biological target: T1, AChE; test: AChE inhibition, Ellman assay; type: biochemical; parameters: AChE from human erythrocytes; purchased Sigma Aldrich; host or cells: human erythrocytes (natural source); details: (h)AChE IC50, Ellman assay; mean ± SEM of at least two experiments
# Procedure: All the synthesized phenolic derivatives and their carbamates were evaluated as potential inhibitors of human AChE, using the Ellman assay, as well as potential ligands for human 5-HT4R using a radioligand displacement assay.
# The inhibitory capacity of compounds on AChE biological activity was evaluated through the use of the spectrometric method of Ellman. Acetylthiocholine iodide and 5,5-dithiobis-(2-nitrobenzoic) acid (DTNB) were purchased from Sigma Aldrich. AChE from human erythrocytes (buffered aqueous solution, ≥500 units/mg protein (BCA), Sigma Aldrich, St. Louis, MO, USA) was diluted in 20 mM HEPES buffer pH 8, 0.1% Triton X-100 such as to have enzyme solution with 0.25 unit/mL enzyme activity. In the procedure, 100 μL of 0.3 mM DTNB dissolved in a phosphate buffer with pH 7.4 were added into the 96-well plates followed by 50 μL of the test compound solution and 50 μL of enzyme (0.05 U final). After 5 min of preincubation at 25 °C, the reaction was then initiated by the injection of 50 μL of 10 mM acetylthiocholine iodide solution. […] Assays were performed with a blank containing all components except acetylthiocholine, in order to account for non-enzymatic reactions. The reaction slopes were compared and the percent inhibition due to the presence of test compounds was calculated by the following expression: 100 − (vi/v0 × 100), where vi is the rate calculated in the presence of inhibitor and v0 is the enzyme activity.
# T1 sequence (P22303 32-617 isoform P22303-2 limits assumed): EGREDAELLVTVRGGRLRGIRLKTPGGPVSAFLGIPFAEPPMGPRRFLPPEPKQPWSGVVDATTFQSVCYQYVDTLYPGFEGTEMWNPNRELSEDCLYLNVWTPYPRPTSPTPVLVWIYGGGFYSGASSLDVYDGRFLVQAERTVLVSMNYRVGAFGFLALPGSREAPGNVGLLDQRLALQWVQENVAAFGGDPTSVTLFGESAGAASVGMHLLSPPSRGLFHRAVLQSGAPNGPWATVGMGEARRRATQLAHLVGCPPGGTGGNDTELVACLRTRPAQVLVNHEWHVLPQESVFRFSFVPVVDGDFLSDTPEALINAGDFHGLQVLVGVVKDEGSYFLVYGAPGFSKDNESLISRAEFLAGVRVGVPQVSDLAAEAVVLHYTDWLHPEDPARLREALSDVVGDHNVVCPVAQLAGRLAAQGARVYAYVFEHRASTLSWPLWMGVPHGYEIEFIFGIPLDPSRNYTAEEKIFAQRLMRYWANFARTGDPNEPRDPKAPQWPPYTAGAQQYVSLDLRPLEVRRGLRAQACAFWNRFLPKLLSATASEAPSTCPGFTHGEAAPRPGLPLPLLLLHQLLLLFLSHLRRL
structure (smiles),measurement,setting,value
"CCN(C)C(=O)Oc1cccc(CN2CCC(CCC(=O)c3cc(Cl)c(N)cc3OC)CC2)c1.O=C(O)/C=C/C(=O)O [Compound 20, [3-[[4-[3-(4-Amino-5-chloro-2-methoxyphenyl)-3-oxopropyl]-1-piperidyl]methyl]phenyl] N-ethyl-N-methyl-carbamate fumaric acid salt]",mechanism of AChE inhibition,[1],mixed-type AChE inhibitor; also recorded: mixed-type inhibition
same,LogPe,"[2]; PAMPA effective permeability coefficient, pH 7.4, 4 h",−4.39
same,"Papp at 4 h, 100 μM","[2]; PAMPA, pH 7.4",407 nm/s
same,brain penetration (BBB crossing),[2]; classification from PAMPA,good brain penetration
same,LD50 at 24 h,[3],> 100 mg/kg
same,Symptoms (Subtoxic Doses),[4]; 100 mg/kg,"100, tremors, hypoactivity full recovery after 24h"
same,Symptoms (Subtoxic Doses),[4]; 1–10 mg/kg,"1–10, no symptoms"
same,spontaneous locomotor activity versus NaCl,[5],"none of the tested doses of compound 20 (1, 3 and 10 mg/kg) statically modified spontaneous locomotor activity"
same,percentage of spontaneous alternation,[6],significantly different from the value of the chance level
same,percentage of spontaneous alternation,[7],significantly different from the value of the chance level
same,IC50,[8],6.07 ± 0.404 µM
